Reference: ChEMBL document CHEMBL5055668 (J Med Chem, 2021)
Calls of active or inactive are those of the source. No cut-off for these calls is given here.

What follows are molecules tested against Macrophage colony-stimulating factor 1 receptor (Homo sapiens, UniProt P07333). Conditions: not given.
Sequence of Macrophage colony-stimulating factor 1 receptor (P07333 whole entry): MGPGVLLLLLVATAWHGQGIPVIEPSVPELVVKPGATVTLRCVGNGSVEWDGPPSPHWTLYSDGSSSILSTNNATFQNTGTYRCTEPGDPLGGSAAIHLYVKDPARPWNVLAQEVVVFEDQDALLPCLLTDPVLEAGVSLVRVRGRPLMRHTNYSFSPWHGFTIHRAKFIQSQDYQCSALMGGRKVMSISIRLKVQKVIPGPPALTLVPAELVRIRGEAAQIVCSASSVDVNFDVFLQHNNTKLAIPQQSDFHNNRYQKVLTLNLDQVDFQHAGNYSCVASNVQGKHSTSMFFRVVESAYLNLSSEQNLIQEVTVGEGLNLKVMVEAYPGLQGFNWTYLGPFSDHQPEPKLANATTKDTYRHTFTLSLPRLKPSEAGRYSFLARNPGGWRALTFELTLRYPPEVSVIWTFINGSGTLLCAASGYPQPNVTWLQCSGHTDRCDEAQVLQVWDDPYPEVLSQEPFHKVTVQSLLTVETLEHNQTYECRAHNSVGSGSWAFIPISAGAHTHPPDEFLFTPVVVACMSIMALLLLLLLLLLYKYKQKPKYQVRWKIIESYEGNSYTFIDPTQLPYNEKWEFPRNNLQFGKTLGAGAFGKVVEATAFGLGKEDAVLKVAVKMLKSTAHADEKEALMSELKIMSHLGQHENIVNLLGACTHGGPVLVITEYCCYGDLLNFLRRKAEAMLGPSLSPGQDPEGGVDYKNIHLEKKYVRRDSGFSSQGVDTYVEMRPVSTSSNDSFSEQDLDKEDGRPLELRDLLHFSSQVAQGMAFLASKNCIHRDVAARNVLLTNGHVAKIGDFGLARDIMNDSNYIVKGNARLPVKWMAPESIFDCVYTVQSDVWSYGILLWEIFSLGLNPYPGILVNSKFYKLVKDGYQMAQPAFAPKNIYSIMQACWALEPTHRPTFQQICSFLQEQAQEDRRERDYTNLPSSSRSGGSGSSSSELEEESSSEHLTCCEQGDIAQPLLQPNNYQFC
Work on CCN(CC)CCNC(=O)c1c(C)[nH]c(/C=C2\C(=O)Nc3cc(NC(=O)NC4CCN(C)CC4)ccc32)c1C yielded an IC50 of over 3 µM.

What follows are molecules tested on MC-38 (assay: Antitumor activity against mouse MC38 cells allografted in C57BL6 mouse assessed as tumor growth inhibition at 20 mg/kg, po administered daily for 2 weeks by caliper method). Conditions: MC-38, po, 336 h, read-out: TGI.
In the case of FC(F)(F)c1ccc(CNc2ccc(Cc3c[nH]c4ncc(Cl)cc34)cn2)cn1 [PEXIDARTINIB], the inhibition in vivo at 20 mg/kg is reported as 40.3%.

The molecules below were run against T1, Macrophage colony-stimulating factor 1 receptor (Mus musculus) (UniProt P09581) (assay: Inhibition of CSF-1R signaling pathway in C57BL/6 mouse BMDM cells assessed as reduction in M-CSF induced CSF-1R phosphorylation at 100 nM preincubated for 12 hrs followed by M-CSF stimulation for 30 mins by Western blot analysis). Conditions: not given.
T1 sequence (whole entry): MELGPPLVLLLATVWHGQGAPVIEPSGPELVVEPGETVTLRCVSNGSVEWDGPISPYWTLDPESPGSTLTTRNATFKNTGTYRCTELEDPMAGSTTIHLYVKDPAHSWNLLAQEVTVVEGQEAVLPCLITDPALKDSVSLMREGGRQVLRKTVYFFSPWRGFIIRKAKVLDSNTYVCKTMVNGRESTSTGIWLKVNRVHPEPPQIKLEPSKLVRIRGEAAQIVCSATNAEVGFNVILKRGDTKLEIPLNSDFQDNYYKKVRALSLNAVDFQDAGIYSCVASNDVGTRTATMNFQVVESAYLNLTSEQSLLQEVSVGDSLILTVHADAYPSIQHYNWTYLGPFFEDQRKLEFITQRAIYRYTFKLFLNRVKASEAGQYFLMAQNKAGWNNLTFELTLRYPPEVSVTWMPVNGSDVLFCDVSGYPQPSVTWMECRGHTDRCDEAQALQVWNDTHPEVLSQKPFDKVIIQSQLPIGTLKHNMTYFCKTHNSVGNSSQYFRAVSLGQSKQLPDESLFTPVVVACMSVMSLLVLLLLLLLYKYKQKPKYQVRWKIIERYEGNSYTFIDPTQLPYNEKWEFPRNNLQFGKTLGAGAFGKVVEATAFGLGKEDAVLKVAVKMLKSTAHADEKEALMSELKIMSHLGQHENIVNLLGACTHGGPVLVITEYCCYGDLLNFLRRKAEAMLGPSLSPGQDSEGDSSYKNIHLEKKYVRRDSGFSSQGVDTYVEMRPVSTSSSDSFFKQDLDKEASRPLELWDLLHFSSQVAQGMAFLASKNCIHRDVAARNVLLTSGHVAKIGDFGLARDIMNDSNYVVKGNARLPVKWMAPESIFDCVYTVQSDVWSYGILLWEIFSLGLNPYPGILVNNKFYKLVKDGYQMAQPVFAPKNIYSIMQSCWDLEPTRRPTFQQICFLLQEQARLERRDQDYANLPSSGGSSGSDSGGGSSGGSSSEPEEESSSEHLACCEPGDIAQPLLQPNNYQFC
Type: cell-based
With Cc1[nH]c(/C=C2\C(=O)Nc3cc(NC(=O)Nc4cc(C(C)(C)C)on4)ccc32)c(C)c1NC(=O)CCN1CCCC1 the inhibition was “Active”. In the case of Cc1[nH]c(/C=C2\C(=O)Nc3cc(NC(=O)Nc4cc(C(C)(C)C)on4)ccc32)c(C)c1NC(=O)CCN1CCCCC1, the inhibition is reported as “Active”. In the case of CCCNCCC(=O)Nc1c(C)[nH]c(/C=C2\C(=O)Nc3cc(NC(=O)Nc4cc(C(C)(C)C)on4)ccc32)c1C, the inhibition is reported as “Active”. Cc1[nH]c(/C=C2\C(=O)Nc3cc(NC(=O)Nc4cc(C(C)(C)C)on4)ccc32)c(C)c1NC(=O)[C@@H]1CCNC1 was tested, and the inhibition was “Active”. For CCNCCC(=O)Nc1c(C)[nH]c(/C=C2\C(=O)Nc3cc(NC(=O)Nc4cc(C(C)(C)C)on4)ccc32)c1C, the inhibition was “Active”. For Cc1[nH]c(/C=C2\C(=O)Nc3cc(NC(=O)Nc4cc(C(C)(C)C)on4)ccc32)c(C)c1NC(=O)C1CCCCN1 (configuration not stated), the inhibition was “Active”. In the case of FC(F)(F)c1ccc(CNc2ccc(Cc3c[nH]c4ncc(Cl)cc34)cn2)cn1 [PEXIDARTINIB], the inhibition is reported as “Active”. With Cc1[nH]c(/C=C2\C(=O)Nc3cc(NC(=O)Nc4cc(C(C)(C)C)on4)ccc32)c(C)c1NC(=O)CCN(C)C the inhibition was “Active”. Cc1[nH]c(/C=C2\C(=O)Nc3cc(NC(=O)Nc4cc(C(C)(C)C)on4)ccc32)c(C)c1NC(=O)C1CCCNC1 (configuration not stated) was tested, and the inhibition was “Active”. With Cc1[nH]c(/C=C2\C(=O)Nc3cc(NC(=O)Nc4cc(C(C)(C)C)on4)ccc32)c(C)c1NC(=O)CCN1CCN(C)CC1 the inhibition was “Active”.
